Reference: ChEMBL document CHEMBL1800045, “Eudistomidins H-K, new β-carboline alkaloids from the Okinawan marine tunicate Eudistoma glaucus” (Bioorg Med Chem Lett, 2011)
Converted amounts (≈) assume the structure as drawn.

Tests used:
Format in all cases: functional, cell-based
L1210 = test: Cytotoxicity against mouse L1210 cells
KB = test: Cytotoxicity against human KB cells
P388 = test: Cytotoxicity against mouse P388 cells

SMILES	IC50 (L1210)	IC50 (KB)	IC50 (P388)
CN[C@H](CSC)c1nccc2c1[nH]c1ccc(O)c(Br)c12 [EUDISTOMIDIN C]	0.36 µg/mL (≈ 0.983 µM)		
CN1Cn2c3c(c4ccc(Br)cc42)CCN(C)[C@@H]3[C@@H]1Cc1ccccc1 [EUDISTOMIDIN H]	> 10 µg/mL	> 10 µg/mL	> 10 µg/mL
CN1Cn2c3c(c4cc(Br)ccc42)CCN(C)[C@@H]3[C@@H]1Cc1ccccc1 [EUDISTOMIDIN I]	> 10 µg/mL	> 10 µg/mL	> 10 µg/mL
CN[C@H](C[S+](C)[O-])c1nccc2c1[nH]c1ccc(O)c(Br)c12 (stereo partly drawn) [EUDISTOMIDIN J]	0.047 µg/mL (≈ 0.123 µM)	0.063 µg/mL (≈ 0.165 µM)	0.043 µg/mL (≈ 0.112 µM)
CC(=O)c1nccc2c1[nH]c1ccc(O)c(Br)c12 [EUDISTOMIDIN K]	> 10 µg/mL	> 10 µg/mL	> 10 µg/mL
